Assay results reported in PMC12564449, “Multifaceted Biological Activity of Selected Flavone C-Monoglucosides” (International Journal of Molecular Sciences, 2025).
Where a name gives a salt, the structure may show the parent alone. Read-outs that look alike come from different tables or passages of the source. Marks after values point to notes of the source that are not given here.

What was measured:
[1] = test system: advanced glycation end-products (AGEs) formation in BSA/glucose model system; experiment: Inhibition of AGEs formation, BSA/glucose model system; format: biochemical, bovine; details: for IC50: read-out: IC50 against AGEs formation, BSA-Glucose System
Procedure: (§1) The inhibitory activity against AGEs formation was performed in the bovine serum albumin (BSA)/glucose and BSA/methylglyoxal (MGO) model systems as described recently by Zielińska et al.. Standards of OR, hOR, VT, iVT, and Q were initially dissolved in a small volume of DMSO and then in phosphate buffer (0.1 M, pH 7.4) to obtain 1 mM (DMSO/phosphate buffer; 1:5; v/v). The positive control aminoguanidine (1 mM AG) was used. The percentage (%) of inhibition was obtained from three repetitions (n = 3). The IC50, indicating the concentration of the compound at which formation of AGEs is inhibited by 50%, was determined through linear regression analysis.

[2] = test system: advanced glycation end-products (AGEs) formation in BSA/methylglyoxal (MGO) model system; experiment: Inhibition of AGEs formation, BSA/MGO model system; format: biochemical, bovine; details: for IC50: read-out: IC50 against AGEs formation, BSA-MGO System; for anti-AGEs activity higher in relation to AG: relative to AG
Procedure: as §1

[3] = vs. NHE; cited from earlier work
[4] = Differential pulse voltammetry: anodic peak potentials and antioxidant activity; format: physicochemical; details: DPV; for Anodic Peak Potential Epa (mV) Epa1: glassy carbon electrode; for Antioxidant Activity (mM Trolox): area under anodic peaks, Trolox regression; for antioxidant activity lower in relation to the antioxidant activity of Q: relative to quercetin
Procedure: Electrochemical measurements were performed at room temperature (25 ± 2 °C) in a small-volume electrochemical cell using a potentiostat type SP-240 (BioLogic Science Instruments, Seyssinet-Pariset, France) controlled by EC-Lab V11.36 software. Differential pulse voltammograms were obtained with a pulse amplitude of 100 mV, a potential step of 5 mV, and a modulation time of 0.2 s. Four scans were registered for each sample, and the reported data correspond to the average of at least three replicates. The working electrode was a glassy carbon electrode, GCE (3 mm diameter, BASi M-2012, and the auxiliary and reference electrodes were platinum wire (BASi MW-1033) and Ag/AgCl (3 M KCl, BASi-MW-2052). All potentials are quoted against the used reference electrode. Before each scan, the surface of the glassy carbon electrode was polished on a polishing cloth with 0.05 μm alumina paste and ultrasonically rinsed in deionized water. After polishing, the electrode was washed with ultrapure water and dried with absorbent paper. DPV measurements were carried out in a standard solution of flavone C-monoglucosides and quercetin at a final concentration of 250 μM. Before measurements, the standard solutions were diluted in 0.2 M acetate-acetic buffer (in 80% methanol) at pH 5.0 (v/v: 1:1). Buffer solution also served as a supporting electrolyte. For the test purpose, from registered DPV voltammograms, the anodic oxidation potentials (Epa) in mV and the integrated area under anodic peaks in μA were determined.

[5] = molecular target: T1, angiotensin-converting enzymes (ACE) from porcine kidneys (Sus scrofa, UniProt F1RRW5); experiment: Angiotensin-I-converting enzyme inhibitory activity (fluorometric); format: biochemical
T1 construct: angiotensin-converting enzymes (ACE) from porcine kidneys (EC 3.4.15.1); purchased Sigma (Sigma Chemical Company, Saint Louis, MO, USA); host or cells: porcine kidney
T1 sequence (F1RRW5 34-1309): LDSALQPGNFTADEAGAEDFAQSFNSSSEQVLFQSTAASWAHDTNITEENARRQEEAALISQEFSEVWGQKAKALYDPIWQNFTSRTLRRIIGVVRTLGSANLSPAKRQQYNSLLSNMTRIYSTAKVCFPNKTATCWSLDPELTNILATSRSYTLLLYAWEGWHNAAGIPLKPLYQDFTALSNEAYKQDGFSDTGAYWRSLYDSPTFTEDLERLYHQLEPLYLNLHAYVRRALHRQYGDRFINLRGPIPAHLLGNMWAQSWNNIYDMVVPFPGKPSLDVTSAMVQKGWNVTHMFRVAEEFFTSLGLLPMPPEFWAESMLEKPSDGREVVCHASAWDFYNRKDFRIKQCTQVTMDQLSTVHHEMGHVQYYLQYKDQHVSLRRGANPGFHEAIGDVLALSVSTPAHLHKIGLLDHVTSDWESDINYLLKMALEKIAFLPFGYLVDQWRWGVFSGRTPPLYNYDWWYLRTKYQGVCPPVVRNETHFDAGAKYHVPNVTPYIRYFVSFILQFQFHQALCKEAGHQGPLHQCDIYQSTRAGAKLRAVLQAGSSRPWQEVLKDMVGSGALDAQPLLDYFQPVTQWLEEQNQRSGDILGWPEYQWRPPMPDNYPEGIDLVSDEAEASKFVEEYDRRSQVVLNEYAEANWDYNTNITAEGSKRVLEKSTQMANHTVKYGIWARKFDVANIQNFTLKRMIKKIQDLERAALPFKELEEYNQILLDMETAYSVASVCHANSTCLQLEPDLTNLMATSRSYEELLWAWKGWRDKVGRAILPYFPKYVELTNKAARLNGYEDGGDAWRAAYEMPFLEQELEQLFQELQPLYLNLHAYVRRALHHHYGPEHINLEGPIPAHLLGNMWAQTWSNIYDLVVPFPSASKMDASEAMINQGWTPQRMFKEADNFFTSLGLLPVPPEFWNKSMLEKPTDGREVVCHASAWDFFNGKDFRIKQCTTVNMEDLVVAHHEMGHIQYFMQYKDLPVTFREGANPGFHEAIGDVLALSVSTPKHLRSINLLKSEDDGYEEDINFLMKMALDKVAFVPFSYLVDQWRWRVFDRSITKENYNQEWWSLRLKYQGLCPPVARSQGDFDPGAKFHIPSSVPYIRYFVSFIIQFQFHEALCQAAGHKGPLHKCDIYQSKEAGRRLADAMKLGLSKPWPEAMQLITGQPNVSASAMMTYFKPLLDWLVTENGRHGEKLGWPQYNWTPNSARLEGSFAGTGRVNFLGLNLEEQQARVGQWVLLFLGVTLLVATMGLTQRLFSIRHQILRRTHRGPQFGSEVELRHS
Procedure: Angiotensin converting enzyme (ACE) inhibitory activity was performed according to the method of Sentandreu and Toldra. The details of the procedure were described recently by Zielińska et al.. Standards of OR (luteolin-8-C-glucoside), hOR (luteolin-6-C-glucoside), VT (apigenin-8-C-glucoside), iVT (apigenin-6-C-glucoside), and Q (quercetin) were dissolved in 80% methanol. Each standard was diluted to various concentrations using deionized water. The multiscan microplate fluorometer (Tecan Infinite M1000 PRO, TK Biotech, Warsaw, Poland) was used, and the IC50 value indicating the sample concentration at which 50% inhibition of ACE activity was determined by using linear regression analysis of logarithmic plots. At least 3 replicates for each standard solution were conducted.

[6] = molecular target: T2, acetylcholinesterase (AChE) (Homo sapiens, UniProt P22303); experiment: Acetylcholinesterase inhibitory activity; format: biochemical; details: for AChE inhibitory activity, times lower than that of galanthamine: relative to galanthamine
T2 construct: purchased Sigma Chemical Co. (Poznań, Poland)
Procedure: The AChE inhibitory activity was evaluated following the methodology adapted from Eldeen et al., and details of the procedure were provided recently by Zielińska et al.. […] All measurements were conducted using a microplate reader (Tecan Infinite M1000 PRO, TK Biotech, Warsaw, Poland). […] At least 3 replicates for each standard solution were carried out.

[7] = 0.25 mM standard solutions, acetate-acetic buffer pH 5.0 in 80% methanol, vs. Ag/AgCl
[8] = ACE from porcine kidneys, linear regression, read-out: IC50 for ACE inhibition

T2 sequence (P22303 32-614, species assumed): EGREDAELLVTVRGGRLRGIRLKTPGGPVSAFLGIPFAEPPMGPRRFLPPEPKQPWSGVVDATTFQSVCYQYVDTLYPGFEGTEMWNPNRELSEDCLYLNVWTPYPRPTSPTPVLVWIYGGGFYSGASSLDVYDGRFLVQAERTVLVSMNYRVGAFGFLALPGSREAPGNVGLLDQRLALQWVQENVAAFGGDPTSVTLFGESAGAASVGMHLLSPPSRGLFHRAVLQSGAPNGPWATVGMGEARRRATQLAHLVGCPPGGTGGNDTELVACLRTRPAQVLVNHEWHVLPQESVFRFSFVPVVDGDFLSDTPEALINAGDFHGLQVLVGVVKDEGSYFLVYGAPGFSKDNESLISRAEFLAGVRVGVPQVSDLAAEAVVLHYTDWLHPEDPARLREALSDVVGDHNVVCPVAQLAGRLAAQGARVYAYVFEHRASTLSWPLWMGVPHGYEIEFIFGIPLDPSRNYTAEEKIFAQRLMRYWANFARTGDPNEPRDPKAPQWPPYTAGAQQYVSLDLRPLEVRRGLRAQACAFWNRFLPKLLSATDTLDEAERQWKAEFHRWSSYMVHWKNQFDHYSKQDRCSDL

| Compound | IC50 [1] | IC50 [2] | Anodic Peak Potential Epa (mV) Epa1 [4, 7] | Anodic Peak Potential Epa (mV) Epa2 [4, 7] | Antioxidant Activity (mM Trolox) [4] | IC50 [5, 8] | IC50 [6] | anti-AGEs activity higher in relation to AG [2] | also measured |
| --- | --- | --- | --- | --- | --- | --- | --- | --- | --- |
| N=C(N)NN [Aminoquanidine (AG), aminoguanidine hydrochloride, reference compound] | 432 ± 36 µM | 531 ± 28 µM | – | – | – | – | – | – | – |
| N[C@@H](CCC(=O)N[C@@H](CS)C(=O)NCC(=O)O)C(=O)O [Glutathione (GSH), Glutathione] | – | – | – | – | – | – | – | – | standard redox potential [3]: around −0.23 V |
| O=c1cc(-c2ccc(O)c(O)c2)oc2cc(O)c([C@@H]3O[C@H](CO)[C@@H](O)[C@H](O)[C@H]3O)c(O)c12 [Homoorientin (hOR), 3′,4′,5,7-tetrahydroxyflavone-6-glucoside] | 14 ± 8 µM | 391 ± 22 µM | 336 ± 5 ^b mV | 960 ± 9 ^b mV | 3.24 ± 0.15 ^b mM Trolox | 114 ± 1.23 µM | 0.581 ± 0.096 µM | 26% | Anodic Peak Potential Epa (mV) Epa1 ([4]; 0.25 mM standard solutions, acetate-acetic buffer pH 5.0 in 80% methanol, vs. Ag/AgCl, listed as hOR): 336 mV; antioxidant activity lower in relation to the antioxidant activity of Q [4]: 15%; AChE inhibitory activity, times lower than that of galanthamine [6]: 14–20 times; anti-AGEs activity times higher in relation to Q ([1]; relative to Q): ~17 times; anti-AGEs activity times higher in relation to VT ([1]; relative to VT): about 18 times; anti-AGEs activity times higher in relation to iVT ([1]; relative to iVT): ~15 times |
| O=c1cc(-c2ccc(O)cc2)oc2cc(O)c([C@@H]3O[C@H](CO)[C@@H](O)[C@H](O)[C@H]3O)c(O)c12 [Isovitexin (iVT), 4′,5,7-trihydroxyflavone-6-glucoside] | 214 ± 11 µM | 341 ± 20 µM | 926 ± 8 ^a mV | – | 1.06 ± 0.07 ^c mM Trolox | 161 ± 3.27 µM | 1.08 ± 0.011 µM | – | Anodic Peak Potential Epa (mV) Epa1 ([4]; 0.25 mM standard solutions, acetate-acetic buffer pH 5.0 in 80% methanol, vs. Ag/AgCl, listed as iVT): 926 mV |
| O=c1cc(-c2ccc(O)c(O)c2)oc2c([C@@H]3O[C@H](CO)[C@@H](O)[C@H](O)[C@H]3O)c(O)cc(O)c12 [Orientin (OR), 3′,4′,5,7-tetrahydroxyflavone-8-glucoside] | 73 ± 5 µM | 326 ± 19 µM | 345 ± 6 ^b mV | 1020 ± 9 ^a mV | 3.00 ± 0.14 ^b mM Trolox | – | – | 39% | Anodic Peak Potential Epa (mV) Epa1 ([4]; 0.25 mM standard solutions, acetate-acetic buffer pH 5.0 in 80% methanol, vs. Ag/AgCl, listed as OR): 345 mV; antioxidant activity lower in relation to the antioxidant activity of Q [4]: 21%; IC50 [5]: 122 ± 2.66 µM; ACE inhibitory activity lower as compared to hOR ([5]; relative to hOR): 6.9%; IC50 ([6]; linear regression, read-out: IC50 for AChE inhibition): 0.868 ± 0.088 µM; AChE inhibitory activity, times lower than that of galanthamine [6]: 14–20 times |
| O=c1c(O)c(-c2ccc(O)c(O)c2)oc2cc(O)cc(O)c12 [Quercetin (Q), 3,3′,4′,5,7-pentahydroxyflavone, reference compound] | 243 ± 12 µM | 466 ± 17 µM | 255 ± 7 ^c mV | 510 ± 8 ^c mV | 3.81 ± 0.19 ^a mM Trolox | – | 1.37 ± 0.077 µM | 12% | Anodic Peak Potential Epa (mV) Epa1 ([4]; 0.25 mM standard solutions, acetate-acetic buffer pH 5.0 in 80% methanol, vs. Ag/AgCl, listed as Q): 255 mV; Anodic Peak Potential Epa (mV) Epa3 [4, 7]: 1060 ± 10 mV |
| O=c1cc(-c2ccc(O)cc2)oc2c([C@@H]3O[C@H](CO)[C@@H](O)[C@H](O)[C@H]3O)c(O)cc(O)c12 [Vitexin (VT), 4′,5,7-trihydroxyflavone-8-glucoside] | 255 ± 16 µM | 437 ± 17 µM | 925 ± 8 ^a mV | – | 0.93 ± 0.07 ^c mM Trolox | 135 ± 2.45 µM | 1.28 ± 0.089 µM | 18% | Anodic Peak Potential Epa (mV) Epa1 ([4]; 0.25 mM standard solutions, acetate-acetic buffer pH 5.0 in 80% methanol, vs. Ag/AgCl, listed as VT): 925 mV; ACE inhibitory activity higher in comparison to iVT ([5]; relative to iVT): 19.6% |
